According to PMC6982798, “Evaluation of Isoflavones as Bone Resorption Inhibitors upon Interactions with Receptor Activator of Nuclear Factor-κB Ligand (RANKL)” (Molecules, 2020):

The molecules below were run against T1, sRANKL recombinant (RANKL) (Homo sapiens, UniProt O14788) (assay: isothermal titration calorimetry (ITC), single binding mode fit). Conditions: read-out: KA × 10^3 (L/mol) (converted).
T1 construct: gene TNFSF11; human is named only for the docking model (3URF), whose residue numbers (K181, Y235, Q237, Y241) fit human RANKL
T1 sequence (O14788 140-317 limits assumed): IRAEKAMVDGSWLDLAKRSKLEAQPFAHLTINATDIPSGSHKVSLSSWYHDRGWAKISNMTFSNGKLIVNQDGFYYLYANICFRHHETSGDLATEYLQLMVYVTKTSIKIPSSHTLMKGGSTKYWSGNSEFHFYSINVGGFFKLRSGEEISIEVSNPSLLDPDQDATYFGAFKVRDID
From the text: isothermal titration calorimetry (ITC), single binding mode fit on sRANKL recombinant (RANKL)

Row | Kd | SMILES
1 | 833 µM | COc1ccc(-c2coc3cc(O)cc(O)c3c2=O)cc1 [Biochanin A]
2 | 1430 µM | O=c1oc2cc(O)ccc2c2oc3cc(O)ccc3c12 [Coumestrol]
3 | 62.7 µM | O=c1c(-c2ccc(O)cc2)coc2cc(O)ccc12 [Daidzein]
4 | 318 µM | COc1ccc(-c2coc3cc(O)ccc3c2=O)cc1 [Formononetin]
5 | 317 µM | O=c1c(-c2ccc(O)cc2)coc2cc(O)cc(O)c12 [Genistein]
